Measured values as given in US8198084B2, “Serum-free mammalian cell culture medium, and uses thereof” (Life Technologies Corporation, priority 1996, dated 2012).

Experiments:
[1] = system: rβ-gal CHO cells; test: Growth (cell density) of rβ-gal CHO cells in suspension culture; type: cell-based, Chinese hamster; conditions: for cell growth and viability versus CD CHO control: Example 14, 25 μg/mL in CD CHO medium, FIG. 13
Experimental: To establish a recombinant β-galactosidase (rβ-Gal) CHO cell line, CHO cells deficient in dihydrofolate reductase (DHFR^−) were obtained from ATCC(CRL-9096, Rockville, Md.) and transfected with two plasmids: pSV2dhfr (ATCC 37146), containing a gene for methotrexate (MTX) resistance, and pCMVβgal, which contains the lacZ cDNA. The transfection was conducted using LipofectAMINE™ Reagent, and selection was accomplished with 1.2 μM methotrexate (Sigma Chemical Co., St Louis, Mo.). Stock cultures were maintained in CHO-S-SFM II or CHO III Prototype supplemented with 0.3 μM MTX.
Unless indicated otherwise below, CHO cell culture conditions were as follows for the following Examples. 25-35 mL of CHO cells were cultured in 125 mL shake flasks in humidified air containing 5-10% carbon dioxide. The shake flasks were shaken on an orbital shaking platform at 125-135 rpm. Temperature was maintained at 37° C. Cells were subcultured every three to four days to a density of 2−3×10^5 cells/mL.

[2] = system: rβ-gal CHO cells; test: rβ-Gal assay (ONPG) in lysates of rβ-gal CHO cells; type: cell-based, Chinese hamster; conditions: for level of rβ-gal expression versus CD CHO control: Example 14, 25 μg/mL in CD CHO medium, FIG. 14
Experimental: rβ-Galactosidase (rβ-gal or rβeta-Gal) was measured in cell lysates using a modification of the method described by Hall et al., J. Mol. Appl. Gen. 2:101-109 (1983) and Miller, Experiments in Molecular Genetics, Cold Spring Harbor Laboratory (1972). Briefly, a 2.0 ml sample of cell suspension was collected from each sample and subjected to two freeze-thaw cycles, centrifuged at 100× g for 4 minutes, and the supernatant was saved for rβ-Galactosidase quantitation. 100 μl of each supernatant sample was added to 1.0 ml Z buffer (0.06 M Na2HPO4, 0.04M NaH2PO4, 0.01M KCl, 0.01M MgSO4-7H2O, 0.05M β-mercaptoethanol, pH 7.0), followed by 200 μl of o-nitrophenyl-p-D-galactoside (ONPG, 4.0 mg/ml in dH20) and incubated at 37° C. for 120 minutes. The reaction was halted by addition of 500 μl stop buffer (1M Na2CO3) and absorbance at 420 nm was read against a blank of the appropriate medium. Activity was calculated using the following formulae:
[formula] Units rβ-galactosidase/# of cells=Activity/cell 2.

[3] = system: 293 human embryonic kidney cells; test: Suspension culture of 293 cells: cell density and viability; type: cell-based; conditions: lower-protein media, transferrin replaced by iron chelate; FIG. 2
Experimental: Adenovirus type 5-transformed 293 human embryonic kidney epithelial cells were obtained from ATCC(CRL 1573), and were cultured as described in Example 4 by incubation at 37° C. in a humidified atmosphere consisting of 8% CO2/92% air.
Cultures of 293 cells in serum-supplemented media were weaned from serum by passage 2-3 times in OptiMEM medium (Life Technologies, Inc.; Rockville, Md.) supplemented with 2% normal horse serum in 165 cm^2 culture flasks. After the second or third passage, when cells reached 50-75% confluence, they were dislodged from the growth surfaces by gently rapping the flasks several times; trypsin or other proteolytic agents were not used, since such agents often cause irreversible damage to cells cultivated in low-serum or serum-free media. Cells were resuspended in the present culture media and triturated until aggregates dispersed into a single cell suspension, and cell concentration and viability was determined by trypan blue exclusion counting on a hemacytometer according to routine procedures.
Cells were then seeded into the present culture medium in Erlenmeyer flasks at a density of about 2.5−3.0×10^5 cells/ml. […] Cell densities and viabilities were determined at least every other day, and cells were subcultured when the density approached about 7.5−10.0×10^5 cells/ml by diluting cultures with fresh culture medium to a density of about 2.5−3.0×10^5 cells/ml. […]

Molecule	cell growth and viability versus CD CHO control [1]	level of rβ-gal expression versus CD CHO control [2]	support of 293 cell growth compared with complete media [3]	further results
CN(Cc1cnc2nc(N)nc(N)c2n1)c1ccc(C(=O)N[C@@H](CCC(=O)O)C(=O)O)cc1 [MTX, methotrexate, reference compound]				relation of concentration to cell density ([1]; Example 9, CD CHO medium with increasing concentrations, FIG. 7A): inversely proportional; relation of concentration to rβ-galactosidase specific activity ([2]; Example 9, CD CHO medium with increasing concentrations, FIG. 7B): proportional
dextran sulfate [dextran sulfate (m.w. 500,000)]	increased cell growth and viability at days 5 and 7, but not at day 9	did not display enhanced expression		
FeSO4-EDTA			performed equivalently to complete media	
FeCl3-sodium citrate			performed equivalently to complete media	
dextran sulfate [dextran sulfate (m.w. 5,000)]	increased cell growth and viability at days 5, 7, and 9	an increase in the level of rβ-gal expression at days 5, 7, and 9		
